The source of these data is a melting point compilation (Tetko et al.; mined from patent text by program, amines drawn as free bases though some values may be those of a salt).

Residues, ends and D or L forms follow the SMILES beside them. *: point of attachment. Cbz = O=C(OCc1ccccc1)*

In general, melting point refers to the temperature of the solid-liquid transition. The molecule `CC(C)(C)C1=C(c2ccc(C(=O)N3CCOCC3)c(O)c2)OCC1(C)C` yielded a melting point of 141 to 142 °C.

On to `CCC(Oc1ccccc1Cl)C(=O)OC1CC(O)C=C2C=CC(C)C(CCC3CC(O)CC(=O)O3)C21` (mixture of isomers), for which the melting point was in the range of 145 to 147 °C.

Take `CC(Cc1c[nH]c2ccccc12)(NC(=O)OCC1c2ccccc2-c2ccccc21)C(=O)NCCc1ccccc1` (centres undefined): the melting point was in the range of 179 to 181 °C.

In turn, `CCC12CCC3=C(CCc4cc(OC)ccc43)C1CCC2O` (centres undefined) had a melting point of 102 to 105 °C.

For the molecule `COc1cc(OC)nc(NC(=O)NS(=O)(=O)Nc2ccccc2C(O)C2CC2)n1` (centres undefined), the melting point was in the range of 66 to 69 °C.

The molecule `C=CCN1CCC(Nc2nc3cncnc3n2Cc2ccc(F)cc2)CC1` yielded a melting point of 145 °C.

Molecule `O=C(O)c1ncsc1-c1ccccc1` yielded a melting point of 189 to 190 °C.

As to `CCCN(CCC)C(=O)CNc1nc(-c2ccccc2)ncc1CO`, the melting point lay within 167 to 168 °C.

The molecule `CCNC(=O)C1CCCN1C(=O)C(C)NC(=O)C(C)NC(=O)OCc1ccccc1` (stereo not drawn) (Cbz-Ala-Ala-Pro-NHEt; configuration not given here) gave a melting point of 139 to 140 °C.

For `Cc1oc(-c2cc3ccccc3s2)nc1COc1ccc(CCCCn2cncn2)cc1`, the melting point fell in the range of 131 to 132 °C.

In turn, `CC1(C)CCc2c(N3CCCC3)nc3sc4c(NCCc5c[nH]cn5)ncnc4c3c2C1` returned a melting point of 192 to 193 °C.

Molecule `CCOC(=O)C1CCCCN1C(=O)Cl` (centres undefined) had a melting point of 121 to 123 °C.

Turning to `COC(=O)c1ccc(OCCNC(=O)c2ccc(Br)cc2)cc1`, the melting point lay within 134 to 136 °C.

Molecule `COc1cc2ncnc(N3CCC(CN)CC3)c2cc1OC` registered a melting point of 144 to 146 °C.

In the case of `CCc1oc2ccccc2c1C(=O)c1ccc(Cl)c(S(N)(=O)=O)c1`, the melting point fell in the range of 170 to 172 °C.

As for `CN(C)c1ccc(NC(=O)N(CC2CCCCC2)C[C@H]2CCC[C@H](CN(CC3CCCCC3)C(=O)Nc3ccc(N(C)C)cc3)C2)cc1` (relative stereo), the melting point fell in the range of 136 to 140 °C.

`CC(C)(C)c1cc(N(C(=O)CCC(=O)O)c2ccc(OC(=O)c3ccccc3)cc2)cc(C(C)(C)C)c1O` gave a melting point of 131 to 132 °C.

In turn, `CC(C)N(N)C(=O)N1CCCC1C(=O)OC(C)(C)C` (centres undefined) showed a melting point of 87 to 91 °C.

As for `CCOC(=O)c1cn(C2CC2)c2c(CO)c(N3CCOCC3)c(F)cc2c1=O`, the melting point lay within 212 to 216 °C.

With `CS(=O)C1C=Nc2cc(Cl)ccc2C1=O` (centres undefined), the melting point is 247 to 249 °C.

`CN1CCN(c2cccc(Nc3nc4c(-c5ccc(S(C)(=O)=O)cc5)cccn4n3)c2)C(=O)C1` yielded a melting point of 234 to 236 °C.

In the case of `Cc1cc(-c2ccc(Cl)cc2)sc1C(=O)O`, the melting point lay in the range of 245 to 246 °C.

`Cc1cc(-c2cc3cc(OCCNC[C@H](O)c4cccc(Cl)c4)ccc3o2)no1` had a melting point of 108 to 110 °C.

Molecule `CCCc1ccc(NC(=O)c2ccccc2C(c2ccc(O)cc2)c2ccc(O)cc2)cc1` gave a melting point of 218 to 219 °C.

In turn, `Cc1nc(N)c(N)cc1Cl` registered a melting point of 128 to 130 °C.

In the case of `O=Cc1ccc2c(ccc3ccccc32)c1`, the melting point lay in the range of 58 to 60 °C.

In turn, `CN(N=Cc1ccco1)C(=O)c1[nH]c2ccccc2c1-c1ccccc1` displayed a melting point of 196 to 199 °C.

Turning to `CC(N)CC(=O)N(c1ccc(Nc2ccccc2)cc1)C(C)C` (centres undefined), the melting point was 145 to 151 °C.

The molecule `Oc1cccc(Nc2n[nH]c3ncnc(Nc4cccc(Cl)c4)c23)c1` yielded a melting point of 265 to 266 °C.

For the molecule `CC(C)(C)c1cc(C(O)COc2ccc(C(=O)O)c(O)c2)cc(C(C)(C)C)c1O` (centres undefined), the melting point lay in the range of 132 to 133 °C.

As for `Oc1ccc(-c2cc3ncccc3cn2)cc1`, the melting point was 219 to 221 °C.

For `Clc1ccc2c(c1)C(c1ccccc1)=NCc1nnc(CNCC3CC3)n1-2`, the melting point lay in the range of 154 to 157 °C.

In turn, `O=[N+]([O-])c1cnc2sccc2c1Cl` came in with a melting point of 110 to 113 °C.

In turn, `CCOCCn1c(CCl)nc2ccccc21` came in with a melting point of 75.5 to 77 °C.

Turning to `Cc1sc(S(=O)(=O)NC(C)(C)CO)cc1[N+](=O)[O-]`, the melting point was found to be 118 °C.

Regarding `COc1cc(OC)c2c(=O)[nH]c(-c3cc(C)c(OCCO)c(C)c3)cc2c1`, the melting point was 193 to 195 °C.

The molecule `CC(=Cc1ccc(F)c(F)c1)C(=O)O` displayed a melting point of 122 to 125 °C.

`CCCCCCCCOc1ccc(-c2ccc(CCl)cc2)cc1` had a melting point of 101 °C.

The molecule `COC(=O)CC=C(CC(C)C)C(=O)O` returned a melting point of 40 to 45 °C.

`N#Cc1cccc(CCN2CCN(Cc3ccc(Cl)nc3)C2=N[N+](=O)[O-])c1` came in with a melting point of 204 to 206 °C.

The molecule `O=c1[nH]c2cc(C(F)(F)F)ccc2n1CCCN1CCN(C(c2ccccc2)c2ccccc2)CC1` came in with a melting point of 153 °C.

In turn, `O=C(Nc1cccc2c1C(=O)c1c-2n[nH]c1C1CCN(C(=O)C2CCCNC2)CC1)NN1CCOCC1` (centres undefined) displayed a melting point of 169 to 170 °C.

As for `Cc1cc(-c2ccc(Cl)c(Cl)c2)nc(-n2cnc(-c3cccc(S(N)(=O)=O)c3)c2)n1`, the melting point was 210 °C.

Consider `C[C@@H](O)C1(c2onc(-c3ccc(O)cc3)c2-c2ccccc2)CC1`, for which the melting point was found to be 213 °C.

Turning to `O=C(CCl)Nc1nc(Cl)c(-c2ccccc2)s1`, the melting point was in the range of 215 to 216 °C.

The molecule `CC12CCC(C(=O)O)=CC1=CCC1C2CCC2(C)C(C(=O)c3ccccc3)CCC12` (centres undefined) had a melting point of 222 to 225 °C.

For the molecule `CCOC(OCC)c1nc(-c2ccc(Cl)cc2)c(F)c(N=C2C=CC(=O)C=C2)c1Cl`, the melting point fell in the range of 134 to 136 °C.

For the molecule `CCN(C(=O)c1ccc(Cn2cnc3ccccc32)cc1)C1CCCCC1`, the melting point is 118 to 119 °C.

In turn, `CCOC(=O)c1cc(=O)c2ccc(OC(=S)N(C)C)cc2o1` came in with a melting point of 160 to 161 °C.

`N#Cc1c(-c2ccc(Cl)cc2)c(-c2ccc(Cl)cc2)nn(CCO)c1=O` showed a melting point of 122 to 123 °C.

In the case of `COC(=O)c1c(C)sc2cc(CCn3ccnc3)ccc12`, the melting point lay in the range of 90 to 92 °C.

In turn, `CNC(=O)[C@@H]1C[C@@H](OCC2CC2)CN1S(=O)(=O)c1ccc(Cl)c(COc2cccc3c(-n4ccnc4)cc(C)nc23)c1Cl` displayed a melting point of 98 °C.

The molecule `CCN(C=Nc1ccncc1O)CC` gave a melting point of 104 to 106 °C.

`C=CCN1C(=O)C2CCc3c(ccc(OC)c3OC)C2C1=O` (centres undefined): the melting point fell in the range of 147 to 148 °C.

`CC=CCC(O)(C(=O)c1ccccc1)C(=O)c1ccc(C(C)C)cc1` (centres undefined): the melting point is 108 to 110 °C.

Regarding `CN1CCC(C(=NNc2ccc(F)cc2)c2ccccc2F)CC1`, the melting point fell in the range of 125 to 126 °C.

`N=C(Nc1ccc(C(F)(F)F)cc1)Nc1ncccc1OCc1ccccc1` showed a melting point of 154 to 155 °C.

The molecule `COC(=O)C(=O)c1ccc(OC/C=C/c2ccccc2)cc1` registered a melting point of 80 to 82 °C.

For the molecule `COc1cc(C(=O)C(Br)CCC2CCCCC2)c(OC)cc1C` (centres undefined), the melting point was 75 to 77 °C.

`CC(C)C[C@H](NC(C)C)C(=O)O`: the melting point was 293 to 296 °C.

Turning to `Cc1ccc(Oc2cccc(CC(=O)O)c2N)cc1C`, the melting point was 90 to 92 °C.

In turn, `CC1(C)Cc2ccsc2C=[N+]1[O-]` returned a melting point of 136 to 138 °C.

The molecule `CC(C)NC1=NS(=O)(=O)c2cc(F)c(Cl)cc2N1` displayed a melting point of 282 to 285 °C.

Molecule `CCN(CC)C(=O)NC1CC2c3cccc4[nH]c(CCc5ccc(OC)cc5)c(c34)CC2N(C)C1` (centres undefined) displayed a melting point of 147 to 149 °C.

`N#CC1=CCN(c2ncccc2F)CC1` showed a melting point of 76 to 77 °C.

On to `NS(=O)(=O)c1ccc(-c2cc(-c3nc(-c4ccc(F)c(F)c4)cc(C(F)(F)F)n3)ccn2)s1`, for which the melting point came to 281 °C.

The molecule `C/C(C=O)=C\c1ccc([N+](=O)[O-])cc1` yielded a melting point of 112 to 114 °C.

The molecule `CC(C)(C)C1NC(C(=O)O)CS1` (mixture of isomers) returned a melting point of 184 °C.

Take `CN(C)c1cccc2c1c(=O)n(C)c1c(-c3noc(C4CC4)n3)ncn21`: the melting point fell in the range of 170 to 171 °C.

In turn, `CC(C)(CO)NC(=O)NCCNCC(O)COc1ccc(O)cc1` (centres undefined) returned a melting point of 113 to 130 °C.

In the case of `COc1ccc(C2=NN(c3cccc(C(=O)N4CCOCC4)c3)C(=O)C(C)(C)C2)cc1OC`, the melting point is 108 to 109 °C.

On to `CCOc1cc(CCl)cc(OCc2nc(-c3ccccc3)oc2C)c1`, for which the melting point fell in the range of 86 to 87 °C.

Turning to `CCOC(=O)c1cn(-c2c[nH]nn2)c2cc(F)c(F)cc2c1=O`, the melting point stood at 298 °C.

Consider `OCC1CNCCC1c1ccc(F)cc1` (centres undefined), for which the melting point lay in the range of 123 to 124 °C.

Consider `c1cn2cc(-c3cnc4cc[nH]c4c3)cc(Nc3cc4n(n3)CCOC4)c2n1`, for which the melting point lay within 192 to 195 °C.

On to `O=C(NC1CCCCC1)N1CCC(c2cn(C(=O)NC3CCCCC3)cn2)CC1`, for which the melting point amounted to 166 °C.

`OC[C@H]1OC(O)[C@H](O)[C@H](F)[C@@H]1O` (some centres undefined) had a melting point of 120 to 122 °C.

`COC(=O)C=Cc1cc(NC2CCN(Cc3ccccc3)CC2)ccc1C`: the melting point was 140 to 142 °C.

`CCCc1nn(C)c2c(=O)[nH]c(Cc3ccc(N(CC)CC)cc3)nc12` returned a melting point of 201 to 203 °C.

As for `CCCc1c(OCCCCCCc2cc(C)c(OC)c(OC)c2C)ccc(C(=O)O)c1O`, the melting point was 109 to 112 °C.

As to `Cc1nc(N)c2nc(C)n(CCNC(=O)C(C)C)c2c1C`, the melting point is 220 to 222 °C.

As to `CCc1c(NC(=O)c2cc(S(C)(=O)=O)ccc2OCC(C)C)c(C(N)=O)nn1CCN1CCOCC1`, the melting point lay within 200 to 203 °C.

As for `CC(C)(C)Nc1nc(Cl)c(C#N)cc1F`, the melting point was 84 to 85 °C.

`CCOc1ccc(O)c(F)c1F` gave a melting point of 73 °C.

`O=C(NC(CO)CO)c1cccc(-c2ccc3c(c2)C(c2ccc(Cl)cc2Cl)CC3)c1` (centres undefined) came in with a melting point of 135 to 157 °C.

Molecule `COc1ccc(CCCCOc2cc(-c3nc4cc(C(=O)O)ccc4[nH]3)ccc2OC)cc1` had a melting point of 167 to 169 °C.

`CC(C)(COCc1cccc(Oc2ccccc2)c1)c1ccc(O)cc1`: the melting point is 69.2 to 70 °C.

With `CCCCCCCCc1ccc(C(=O)CCCCCC(=O)OCC)cc1`, the melting point was 38 to 40 °C.

On to `CCSc1ccc(-c2cccnc2)c2c1C(=O)CC(C)C2` (centres undefined), for which the melting point lay in the range of 140 to 142 °C.
